Reference: patent US8354274B2, “Synthetic surfaces for culturing cells in chemically defined media” (Geron Corporation, priority 2008, dated 2013)
Bridges are numbered along the chain shown (N, C = ends). Where no end group is shown, it is not given here.

Tests used:
[1] = tested on: HT-1080 human fibrosarcoma cells; experiment: HT-1080 cell adhesion assay (crystal violet, absorbance at 570 nm); format: cell-based; conditions: for HT-1080 adhesion compared with linear BSP (SEQ ID NO:4)-conjugated (meth)acrylate: cyclic peptide conjugated to Formulation SA1, normalized to fibronectin (FN, 5 mg/mL)-coated surfaces
Excerpt: To evaluate ability of a polypeptide conjugated to embodiments of swellable (meth)acrylate using these conjugation methods to enable cell adhesion and proliferation, peptides Ac-LysTyrGlyArgLysArgLeuGlnValGlnLeuS erIleArgThr-NH2 (SE Q ID NO:22) (AG-73, an adhesive peptide) and Ac-GlyArgGlyGluSerProIleTyrLys-NH2 (SEQ ID NO:30) (RGE, a negative control) were conjugated to swellable (meth)acrylate (as described above) and adhesion of HT-1080 human fibrosarcoma cells to the swellable (meth)acrylate was evaluated. Briefly, Laminin (5 μg/mL, Sigma-Aldrich) control wells were coated for 1 hour at room temperature. All wells were blocked with 1% bovine serum albumin (BSA) in phosphate buffered saline (PBS) for 1 hour at 37° C. Wells were washed briefly with PBS before incubation with 0.1% BSA in Iscove's Modified Dulbecco's Medium (IMDM) prior to cell seeding. HT-1080 human fibrosarcoma cells (ATCC number: CCL-121) were grown in IMDM (Lonza) with 10% FBS (Lonza) to 90% confluency at standard cell culture conditions. Cells were trypsinized and allowed to recover in IMDM with 10% FBS for 30 minutes at 37° C., 5% CO2. After recovery, cells were washed and resuspended in 0.1% BSA in IMDM and seeded on peptide-conjugated plates at a density of 30,000 cells/well. Cell adhesion was allowed to take place for 1 hour at standard cell culture conditions. The media was aspirated from the wells and adherent cells were fixed and stained in 50 μL of 0.2% crystal violet in 20% methanol for 8 minutes at room temperature. Cellular absorption of crystal violet was quantified through addition of 1% SDS in H2O for 5 minutes prior to absorbance measurement at 570 nm. For this assay, after polypeptide conjugation the remaining NHS esters on the swellable (meth)acrylate were reacted with ethanolamine or aminopropyl morpholine to reduce uptake of crystal violet dye by the swellable (meth)acrylate.

H7 hES cells = experiment: AttoPhos screening (alkaline phosphatase activity) of undifferentiated hES cells in chemically defined medium; format: cell-based, human; conditions: for support of culture of undifferentiated stem cells (AttoPhos): peptides conjugated to Formulation SA1 at 10, 100 and 1000 μM input concentration
Experimental: All experimental plates were sterilized prior to the cell seeding by spraying with 70% ETOH, drying in a laminar hood, and washing five times with 200 μl Dulbecco's Phosphate Buffered Saline (DPBS). H7 hES cells were seeded on peptide conjugated swellable (meth)acrylate (SAP) surfaces at a density of 35,000 cells/well (96-well plate) in 100 μl of chemically defined medium Xvivo10 (Lonza, Cat #04-743Q) and supplemented with 80 ng/ml basic fibroblast growth factor (bFGF) (R&D systems, Cat #234-FSE/CF) and 0.5 ng/ml transforming growth factor-β1 (TGFβ1) (R&D systems, Cat. #240B). MATRIGEL™ (MG)-coated wells were used as positive control for adhesion of undifferentiated hES cells. Cells were cultured for 48 hrs under standard cell culture conditions (37° C. with 5% CO2) and then were fixed and processed for AttoPhos assay to measure alkaline phosphatase activity, which is a known marker for undifferentiated hES cells, and/or BCIP staining as described below.
AttoPhos screening was performed as follows. Briefly, at the end of incubation time, cells were rinsed with 150 μl of DPBS and fixed with 4% paraformaldehyde for 10 min at room temperature (70 μl/well of 96-well plate). The cells were washed once with 150 μl of DPBS, and treated for 10 min with 100 μl of AttoPhos fluorescent substrate for alkaline phosphatase (Promega) (diluted 1:3 in DPBS) protected from light. AttoPhos fluorescent intensity at 485/535 nm was obtained using Victor 3 microplate reader (Perklin Elmer). AttoPhos fluorescent intensity for experimental surfaces was expressed as % of MATRIGEL™ control.

HepG2/C3A cells = experiment: Serum-free attachment of HepG2/C3A cells (LDH activity, absorbance at 490 nm); format: cell-based; conditions: peptide conjugated to SA layer, 24 hours
Experimental: HepG2/C3A cells (ATCC # CRL-10741) were plated at 25,000 cells per well in 100 μl media in triplicate on SAP surfaces, BD BioCoat™ Collagen I and Corning CellBind® treated Topas™ in a 96 well format and cultured at in Eagle's Minimum Essential Medium (ATCC #30-2003) supplemented with 1% penicillin-streptomycin (Invitrogen #15140-155). The culture medium was not supplemented with fetal bovine serum (as recommended by the cell line supplier) nor was the SAP surface exposed to fetal bovine serum. The culture plates were incubated at 37° C., in 5% CO2 and 95% relative humidity for 24 hours. The cell culture plates having the SA surfaces were prepared as described in EXAMPLE 1. Peptides were conjugated according to EXAMPLE 2. […] The line in FIG. 24 indicates 75% performance of cells on Collagen 1.
The attachment of the HepG2/C3A cells was determined using a Cytotoxicity Assay (Promega CytoTox 96® Non-Radioactive Cytotoxicity Assay # G1780) which estimates the number of living cells attached to the culture surfaces. After 24 hours of in culture, the cells were vigorously washed with phosphate buffer, lysed via the introduction of the lysis buffer solution and incubation at 37 C for 1 hour to release lactate dehydrogenase (LDH) enzyme from the viable cells that remain attached to the culture surfaces. The biological activity of the released lactate dehydrogenase enzyme was measured via absorbance at 490 nm using a plate reader (Victor 3 from PerkinElmer).

[2] = peptide conjugated to swellable (meth)acrylate, 1 hour adhesion, OD570 nm normalized to Laminin

Substance: Ac-LysTyrGlyArgLysArgLeuGlnValGlnLeuSerIleArgThr-NH2 (Ac-KYGRKRLQVQLSIRT-NH2) [AG-73]
- adhesion of HT-1080 cells ([1]; 1 μM peptide solution used for conjugation): did not result in cell adhesive surface
- adhesion of HT-1080 cells ([1]; 10 μM peptide solution used for conjugation): resulted in an adhesive surface
- adhesion of HT-1080 cells ([1]; 100 μM peptide solution used for conjugation): resulted in an adhesive surface
- adhesion of HT-1080 cells [1, 2]: adhered specifically

Substance: Ac-LysGlyGlyCys^4GluProArgGlyAspThrTyrArgCys^17-NH2 (Ac-KGGCEPRGDTYRC-NH2; disulfide 4-13; SMILES CC(=O)N[C@@H](CCCCN)C(=O)NCC(=O)NCC(=O)N[C@H]1CSSC[C@@H](C(N)=O)NC(=O)[C@H](CCCNC(=N)N)NC(=O)[C@H](Cc2ccc(O)cc2)NC(=O)[C@H]([C@@H](C)O)NC(=O)[C@H](CC(=O)O)NC(=O)CNC(=O)[C@H](CCCNC(=N)N)NC(=O)[C@@H]2CCCN2C(=O)[C@H](CCC(=O)O)NC1=O) [SEQ ID NO:9]
- HT-1080 adhesion compared with linear BSP (SEQ ID NO:4)-conjugated (meth)acrylate [1]: supported HT-1080 adhesion similar to

Substance: GlyArgGlyAspSerProLys (GRGDSPK; Synthetic polypeptide including sequence derived from human fibronectin) [s-FN]
- support of culture of undifferentiated stem cells (AttoPhos) (H7 hES cells): comparable in performance to the long fibronectin sequence

Substance: KYGSETTVKYIFRLHE [SEQ ID NO:19]
- attachment of HepG2/C3A cells compared to Collagen I (HepG2/C3A cells): *CLS 01035 (Polypeptides exhibiting results better than 75% attachment compared to Collagen I (see FIG. 24) are marked with an asterix in Table 6)
- serum-free attachment of HepG2/C3A cells compared with CellBind treated Topas (HepG2/C3A cells): greater than CellBind® treated Topas™

Substance: KYGKAFDITYVRLKF [SEQ ID NO:21]
- serum-free attachment of HepG2/C3A cells compared with CellBind treated Topas (HepG2/C3A cells): greater than CellBind® treated Topas™

Substance: Ac-GlyArgGlyGluSerProIleTyrLys-NH2 (Ac-GRGESPIYK-NH2) [reference compound]
- adhesion of HT-1080 cells [1, 2]: did not adhere

Substance: Ac-LysGlyGlyAsnGlyGluProArgGlyAspThrTyrArgAlaTyr-NH2 (Ac-KGGNGEPRGDTYRAY-NH2) [SEQ ID NO:4]
- AttoPhos fluorescence intensity (FI) compared to MATRIGEL control (H7 hES cells; SEQ ID NO:4 conjugated to Formulation SA1A using 1000 μM solution, Xvivo10 + bFGF + TGFβ1, 48 hrs): 56-60%
- adhesion and growth of undifferentiated stem cells versus peptide concentration (AttoPhos) (H7 hES cells; peptide at 1, 10, 100 and 1000 μM, formulation SA1A surfaces): peptide concentration dependent
- support of culture of undifferentiated stem cells (AttoPhos) (H7 hES cells): appeared to better support the culture of undifferentiated stem cells

Substance: Ac-LysGlyGlyLys^4GluProArgGlyAspThrTyrArgAsp^13-NH2 (Ac-KGGKEPRGDTYRD-NH2; lactam 4-13; SMILES CC(=O)N[C@@H](CCCCN)C(=O)NCC(=O)NCC(=O)N[C@H]1CCCCNC(=O)C[C@@H](C(N)=O)NC(=O)[C@H](CCCNC(=N)N)NC(=O)[C@H](Cc2ccc(O)cc2)NC(=O)[C@H]([C@@H](C)O)NC(=O)[C@H](CC(=O)O)NC(=O)CNC(=O)[C@H](CCCNC(=N)N)NC(=O)[C@@H]2CCCN2C(=O)[C@H](CCC(=O)O)NC1=O) [SEQ ID NO:7]
- HT-1080 adhesion compared with linear BSP (SEQ ID NO:4)-conjugated (meth)acrylate [1]: supported HT-1080 adhesion similarly to linear BSP-conjugated (meth)acrylates

Substance: Ac-LysGlyGlyLys^4AsnGlyGluProArgGlyAspThrTyrArgAlaTyrAsp^17-NH2 (Ac-KGGKNGEPRGDTYRAYD-NH2; lactam 4-17; SMILES CC(=O)N[C@@H](CCCCN)C(=O)NCC(=O)NCC(=O)N[C@H]1CCCCNC(=O)C[C@@H](C(N)=O)NC(=O)[C@H](Cc2ccc(O)cc2)NC(=O)[C@H](C)NC(=O)[C@H](CCCNC(=N)N)NC(=O)[C@H](Cc2ccc(O)cc2)NC(=O)[C@H]([C@@H](C)O)NC(=O)[C@H](CC(=O)O)NC(=O)CNC(=O)[C@H](CCCNC(=N)N)NC(=O)[C@@H]2CCCN2C(=O)[C@H](CCC(=O)O)NC(=O)CNC(=O)[C@H](CC(N)=O)NC1=O) [SEQ ID NO:6]
- HT-1080 adhesion compared with linear BSP (SEQ ID NO:4)-conjugated (meth)acrylate [1]: supported HT-1080 adhesion similarly to linear BSP-conjugated (meth)acrylates

Substance: KGGTWYKIAFQRNRK [SEQ ID NO:16]
- attachment of HepG2/C3A cells compared to Collagen I (HepG2/C3A cells): *CLS 01020 (Polypeptides exhibiting results better than 75% attachment compared to Collagen I (see FIG. 24) are marked with an asterix in Table 6)
- serum-free attachment of HepG2/C3A cells compared with CellBind treated Topas (HepG2/C3A cells): greater than CellBind® treated Topas™

Substance: KGGGQKCIVQTTSWSQCSKS (cysteine pairing not given here) [SEQ ID NO:13]
- serum-free attachment of HepG2/C3A cells compared with CellBind treated Topas (HepG2/C3A cells): greater than CellBind® treated Topas™

Substance: Ac-LysGlyGlyCys^4AsnGlyGluProArgGlyAspThrTyrArgAlaTyrCys^17-NH2 (Ac-KGGCNGEPRGDTYRAYC-NH2; disulfide 4-17; SMILES CC(=O)N[C@@H](CCCCN)C(=O)NCC(=O)NCC(=O)N[C@H]1CSSC[C@@H](C(N)=O)NC(=O)[C@H](Cc2ccc(O)cc2)NC(=O)[C@H](C)NC(=O)[C@H](CCCNC(=N)N)NC(=O)[C@H](Cc2ccc(O)cc2)NC(=O)[C@H]([C@@H](C)O)NC(=O)[C@H](CC(=O)O)NC(=O)CNC(=O)[C@H](CCCNC(=N)N)NC(=O)[C@@H]2CCCN2C(=O)[C@H](CCC(=O)O)NC(=O)CNC(=O)[C@H](CC(N)=O)NC1=O) [SEQ ID NO:8]
- HT-1080 adhesion compared with linear BSP (SEQ ID NO:4)-conjugated (meth)acrylate [1]: supported HT-1080 adhesion similar to
